Measurements taken from ChEMBL document CHEMBL6096670, “Design, synthesis and biological evaluation of novel β-carbolines as antitumor agents via targeting autophagy in colorectal cancer” (Eur J Med Chem, 2025).
Active and inactive are the calls of the source. The calls are words filed in the database; no cut-off is given here.

What was measured:
[1] = system: HCT-116; assay: Induction of apoptosis in human HCT-116 assessed as early apoptotic cells at 2 uM pretreated with Z-VAD-FMK for 30 mins followed by compound addition and measured after 24 hrs by Annexin V-FITC/PI double staining based flow cytometry (reference value: 0.95%); assay type: functional
[2] = system: HCT-116; assay: Induction of autophagy in human HCT-116 cells transfected with mRFP-GFP-LC3B assessed as autophagolysosome formation by measuring RFP fluorescence at 0.5 to 2 uM incubated for 24 hrs by DAPI staining based fluorescence confocal microscopic analysis; assay type: functional, cell-based; details: dose 0.5-2 µM
[3] = system: HCT-116; assay: Induction of apoptosis in human HCT-116 cells assessed as effect on cleaved PARP expression level at 0.5 to 2 uM incubated for 24 hrs by Western blot analysis; assay type: functional, cell-based; details: dose 0.5-2 µM
[4] = system: HCT-116; assay: Antiproliferative activity against Bax knockout human HCT-116 cells assessed as inhibition of cell viability incubated for 24 hrs by CCK8 assay; assay type: functional, cell-based; details: HCT-116, 24 h
[5] = system: HCT-116; assay: Induction of apoptosis in human HCT-116 cells assessed as effect on cleaved caspase-3 expression level at 0.5 to 2 uM incubated for 24 hrs by Western blot analysis; assay type: functional, cell-based; details: dose 0.5-2 µM
[6] = system: HCT-116; assay: Upregulation of autophagy pathway related genes expression in human HCT-116 cells at 1 uM incubated for 24 hrs by heat map analysis; assay type: functional, cell-based
[7] = Toxicity in female BALB/c mouse implanted with mouse CT26 cells assessed as change in spleen morphology at 1 to 2 mg/kg administrated once every 3 days for 18 days by H&E staining based analysis; assay type: organism-based; details: in vivo, 432 h, dose 1-2 mg/kg, time 18 day
[8] = system: HCT-116; assay: Induction of apoptosis in human HCT-116 assessed as viable cells at 1 uM incubated for 24 hrs Annexin V FITC/PI double staining based flow cytometry (Rvb =90.0%); assay type: functional; details: read-out: Activity
[9] = system: HCT-116; assay: Inhibition of colony formation in human HCT-116 cells assessed as reduction in number of colonies at 0.5 to 2 uM measured after 24 hrs by crystal violet staining based analysis; assay type: functional, cell-based; details: dose 0.5-2 µM
[10] = system: HCT-116; assay: Induction of morphological changes in human HCT-116 cells assessed as suppression of cell growth at 0.5 to 2 uM by microscopic analysis; assay type: functional, cell-based; details: dose 0.5-2 µM
[11] = system: HCT-116; assay: Effect on cleaved caspase 3 expression level in Bax knockout human HCT-116 cells at 1 to 2 uM incubated for 24 hrs by Western blot analysis; assay type: functional, cell-based; details: dose 1-2 µM
[12] = system: HCT-116; assay: Induction of apoptosis in human HCT-116 assessed as late apoptotic cells at 1 uM pretreated with Z-VAD-FMK for 30 mins followed by compound addition and measured after 24 hrs by Annexin V-FITC/PI double staining based flow cytometry (reference value: 7.43 %); assay type: functional
[13] = system: HCT-116; assay: Induction of morphological changes in human HCT-116 cells assessed as appearance of inflated cell shape at 0.5 to 2 uM by microscopic analysis; assay type: functional, cell-based; details: dose 0.5-2 µM
[14] = system: HCT-116; assay: Induction of autophagy in human HCT-116 cells transfected with tandem mRFP-GFP-LC3 plasmid assessed as reduction in p62 expression incubated for 24 hrs by Western blot analysis; assay type: functional, cell-based; details: dose 0.5-20 µM
[15] = system: HCT-116; assay: Antiproliferative activity against ATG7 knockout human HCT-116 cells assessed as inhibition of cell viability incubated for 24 hrs by CCK8 assay; assay type: functional, cell-based; details: HCT-116, 24 h
[16] = system: HepG2; assay: Antiproliferative activity against human HepG2 cells assessed as inhibition of cell growth incubated for 48 hrs by MTT assay; assay type: functional, cell-based; details: HepG2, 48 h
[17] = system: HCT-116; assay: Effect on PARP expression level in Bax knockout human HCT-116 cells at 1 to 2 uM incubated for 24 hrs by Western blot analysis; assay type: functional, cell-based; details: dose 1-2 µM
[18] = system: HCT-116; assay: Effect on C-PARP expression level in Bax knockout human HCT-116 cells at 1 to 2 uM incubated for 24 hrs by Western blot analysis; assay type: functional, cell-based; details: dose 1-2 µM
[19] = system: HCT-116; assay: Induction of apoptosis in human HCT-116 assessed as early apoptotic cells at 1 uM incubated for 24 hrs Annexin V FITC/PI double staining based flow cytometry (reference value: 1.07 %); assay type: functional
[20] = system: HCT-116; assay: Induction of autophagy in human HCT-116 cells transfected with tandem mRFP-GFP-LC3 plasmid assessed as increase in LC3-II accumulation incubated for 24 hrs by Western blot analysis; assay type: functional, cell-based; details: dose 0.5-20 µM
[21] = system: HCT-116; assay: Induction of autophagy in human HCT-116 cells transfected with mRFP-GFP-LC3B assessed as appearance of RFP aggregate clusters in cytoplasm at 0.5 to 2 uM incubated for 24 hrs by DAPI staining based fluorescence confocal microscopic analysis; assay type: functional, cell-based; details: dose 0.5-2 µM
[22] = system: CWR22R; assay: Antiproliferative activity against human 22Rv1 cells assessed as inhibition of cell growth incubated for 48 hrs by MTT assay; assay type: functional, cell-based; details: 22Rv1, 48 h
[23] = system: HCT-116; assay: Effect on PARP expression level in p53 knockout human HCT-116 cells at 1 to 2 uM incubated for 24 hrs by Western blot analysis; assay type: functional, cell-based; details: dose 1-2 µM
[24] = system: HCT-116; assay: Induction of apoptosis in human HCT-116 assessed as early apoptotic cells at 2 uM incubated for 24 hrs Annexin V FITC/PI double staining based flow cytometry (reference value: 1.07 %); assay type: functional
[25] = system: HCT-116; assay: Induction of apoptosis in human HCT-116 assessed as necrotic cells at 2 uM pretreated with Z-VAD-FMK for 30 mins followed by compound addition and measured after 24 hrs by Annexin V-FITC/PI double staining based flow cytometry (reference value: 0.84%); assay type: functional
[26] = system: CT26; assay: Antitumor activity against mouse CT26 cells implanted in female BALB/c mouse assessed as reduction in tumor weight at 2 mg/kg administrated once every 3 days for 18 days relative to control; assay type: functional; parameters: scale not given: the % may be the effect or the level left; details: time 18 day
[27] = system: HCT-116; assay: Effect on caspase 3 expression level in p53 knockout human HCT-116 cells at 1 to 2 uM incubated for 24 hrs by Western blot analysis; assay type: functional, cell-based; details: dose 1-2 µM
[28] = system: HCT-116; assay: Inhibition of cell migration in human HCT-116 cells at 1 to 2 uM incubated for 24 hrs by cell scratch assay; assay type: functional, cell-based; details: dose 1-2 µM
[29] = Toxicity in female BALB/c mouse implanted with mouse CT26 cells assessed as change in body weight at 1 to 2 mg/kg administrated once every 3 days for 18 days; assay type: organism-based; details: in vivo, 432 h, dose 1-2 mg/kg, time 18 day
[30] = system: HCT-116; assay: Inhibition of cell migration in human HCT-116 cells at 1 to 2 uM incubated for 24 hrs by crystal violet staining based transwell migration assay; assay type: functional; details: dose 1-2 µM
[31] = system: BGC-823; assay: Antiproliferative activity against human BGC-823 cells assessed as inhibition of cell growth incubated for 48 hrs by MTT assay; assay type: functional, cell-based; details: BGC-823, 48 h
[32] = Toxicity in female BALB/c mouse implanted with mouse CT26 cells assessed as change in lung morphology at 1 to 2 mg/kg administrated once every 3 days for 18 days by H&E staining based analysis; assay type: organism-based; details: in vivo, 432 h, dose 1-2 mg/kg, time 18 day
[33] = system: HCT-116; assay: Antiproliferative activity against ATG5 knockout human HCT-116 cells assessed as inhibition of cell viability incubated for 24 hrs by CCK8 assay; assay type: functional, cell-based; details: HCT-116, 24 h
[34] = system: HCT-116; assay: Induction of apoptosis in human HCT-116 cells assessed as effect on cleaved caspase 9 expression level at 0.5 to 2 uM incubated for 24 hrs by Western blot analysis; assay type: functional, cell-based; details: dose 0.5-2 µM
[35] = system: HCT-116; assay: Effect on caspase 3 expression level in Bax knockout human HCT-116 cells at 1 to 2 uM incubated for 24 hrs by Western blot analysis; assay type: functional, cell-based; details: dose 1-2 µM

## CCN(CC)CCCNCc1cc2c3ccccc3n(CCCc3ccccc3)c2c(CNCCCN(CC)CC)n1
[1]
  Activity: 2.28%
[2]
  Activity: Active; Rfp Fluorescence Remained Unchanged
[3]
  Activity: inactive
[4]
  IC50: 2.76 µM
[5]
  Activity: inactive
[6]
  Activity: Active
[7]
  Activity: Non-toxic
[8]
  viability at 1 µM: 84.6%
[9]
  inhibition: Active
[10]
  Activity: Active
[11]
  Activity: inactive
[12]
  Activity: 12.4%
[13]
  Activity: Active
[14]
  Activity: Dose-dependent-effect
[15]
  IC50: 6.49 µM
[16]
  IC50: 4.58 µM
[17]
  Activity: inactive
[18]
  Activity: inactive
[19]
  Activity: 2.19%
[20]
  Activity: Dose-dependent-effect; Transformation Of Lc3-I To Lc3-Ii Observed
[21]
  Activity: Active
[22]
  IC50: 4.08 µM
[23]
  Activity: inactive
[24]
  Activity: 2.78%
[25]
  Activity: 1.8%
[26]
  Activity: 87.3%
[27]
  Activity: inactive
[28]
  inhibition: Active
[29]
  Activity: Non-toxic
[30]
  inhibition: Active
[31]
  IC50: 3.81 µM
[32]
  Activity: Non-toxic
[33]
  IC50: 6.62 µM
[34]
  Activity: inactive
[35]
  Activity: inactive
